Test [1] has as its target T1, TrkA (Homo sapiens (Human), UniProt P04629). Description: Measurement of TrkA enzyme-inhibiting activity (LanthaScreen TR-FRET kinase assay). Format: biochemical. The note with it: final ATP 150 μM, read-out: TrkA inhibitory activity (IC50; μM). As for the experimental part:
TrkA-inhibiting activity was measured according to the following method using LanthaScreen™ kinase assay reagents (Invitrogen; Fluorescein-Poly GT, LanthaScreen™ Tb-PY20 and TR-FRET Dilution Buffer), TrkA (Invitrogen), ATP (Sigma-Aldrich), a kinase reaction buffer (50 mM HEPES buffer (Sigma-Aldrich) (pH 7.5) containing 0.01% Brij35 (Sigma-Aldrich), 10 mM MgCl2 (Sigma-Aldrich) and 1 mM EGTA (Sigma-Aldrich)) and 0.5 M EDTA (pH 8.0) (Invitrogen).
The present compound was dissolved in dimethylsulfoxide (hereinafter abbreviated as DMSO) to prepare a 10 mM solution. The test compound at 10 mM was distributed into a 96-well plate and serially diluted with DMSO with the geometrical ratio of 3. The serial dilutions (DMSO solutions) were diluted with the kinase reaction buffer to 20-fold to prepare solutions of the present compound with 5-times concentrations (DMSO concentration: 5%). TrkA was diluted with the kinase reaction buffer to prepare a solution at 38.5 ng/mL (enzyme solution). Adenosine triphosphate (hereinafter abbreviated as ATP) was preliminarily diluted in distilled water to prepare a 10 mM solution which was then divided into containers and stored at −20° C. The 10 mM ATP solution and Fluorescein-Poly GT were diluted in the kinase reaction buffer to prepare a solution containing […] of ATP and 500 nM of Fluorescein-Poly GT (ATP-substrate solution). EDTA (0.5 M; pH 8.0) and LanthaScreen™ Tb-PY20 were diluted in the TR-FRET Dilution Buffer to prepare a solution containing 20 mM of EDTA and 4 nM of LanthaScreen™ Tb-PY20 (detection buffer).
The solutions of the present compound (5 μL/well) and the enzyme solution (10 μL/well) were added to a 96-half well assay plate and the plate was shaken at room temperature for 10 minutes on a plate shaker (IKA™ MTS2/4 digital microplate, IKA Japan K.K.). As a control and a blank, the kinase reaction buffer containing 5% DMSO (5 μL/well) was added in place of the solution of the present compound. As a blank, the kinase reaction buffer (10 μL/well) was added in the place of the enzyme solution. The ATP-substrate solution (10 μL/well) was then added to the plate to initiate kinase reaction and the plate was shaken in the dark at room temperature for 1 hour on the plate shaker (final concentration of TrkA: 15.4 ng/mL, final concentration of the substrate: 200 nM and final concentration of ATP: 150 μM). Kinase reaction was terminated by adding the detection buffer (25 μL/well) to the plate and the plate was shaken in the dark at room temperature for 30 minutes on the plate shaker. On an Analyst GT (Molecular Devices Japan, K.K.) the wells were irradiated with excitation light at 340 nm and the fluorescence intensities at 520 nm and 495 nm were measured. The fluorescence intensity at 520 nm for each well was divided by the fluorescence intensity at 495 nm to calculate the time resolved fluorescence resonance energy transfer (TR-FRET) ratio.
The inhibition rate (%) of the present compound was calculated according to the following Equation 1: Inhibition rate (%)={1−(AX−AB)/(AC−AB)×100 Equation 1
wherein AX: the TR-FRET ratio when the present compound is added;
AB: the TR-FRET of the blank; and
AC: the TR-FRET of the control.
The value for 50% inhibition by the present compound (IC50 value) was calculated from the inhibition curve based on the inhibition rate of the present compound at respective concentrations.
Background: TR-FRET usually uses a lanthanide donor and a delayed reading to cut background.

Test [2] concerns the target T1, TrkA. Description: TrkA kinase-inhibiting activity using human TrkA expressing cells (CellSenser TrkA-NFAT-bla CHO-K1, NGF-stimulated reporter assay). Conditions: CHO-K1 cells expressing human TrkA and NFAT-bla; NGF 50 ng/ml; read-out: TrkA inhibitory activity (IC50; μM). Format: cell-based. As for the experimental part: TrkA kinase-inhibiting activity in cell systems was measured using CHO-K1 cells expressing human TrkA and NFAT-bla (CellSenser™ TrkA-NFAT-bla CHO-K1 cells, Invitrogen).
On the day before the assay, CellSenser™ TrkA-NFAT-bla CHO-K1 cells were suspended in an assay medium (Opti-MEM1 Reduced Serum Medium (Invitrogen) containing 0.5% dialysed fetal bovine serum (Invitrogen), 0.1 mM nonessential amino acids (Invitrogen), 1 mM sodium pyruvate (Invitrogen) and antibiotics (100 U/mL penicillin and 100 μg/mL streptomycin (Invitrogen)) and plated at a density of 2.4×10^4 cells/40 μL/well in a 96-well clear bottom plate (Corning, Catalogue No.: 3882). In some wells were added only the assay medium at 40 μL/well (Cell-free). On the day of the assay, 10 mM of the present compound (DMSO solution) was distributed in a 96-well plate (Costar, Catalogue No.: 3363) and serially diluted with DMSO with the geometrical ratio of 3. The serial dilutions were diluted with the assay medium to 100-fold to prepare a solution of the present compound with a 10-times concentration (DMSO concentration: 1%). To the plate where cells were plated was added the present compound at 5 μL/well and the plate was incubated in a CO2 incubator with 5% CO2, 95% Air at 37° C. for 30 minutes. For a control and a blank, the assay medium containing 1% DMSO was added at 5 μL/well in place of the solution of the present compound. Subsequently the assay medium containing NGF (Mouse 2.5s, Natural, Invitrogen) was added to the plate at 5 µL/well (final concentration of NGF: 50 ng/ml) and the plate was incubated in a CO2 incubator with 5% CO2, 95% Air at 37° C. for 5 hours. For a group of blanks, the assay medium was added in place of NGF at 5 μL/well. A reporter assay detection reagent (10 μL/well) was added to the plate and the plate was then incubated in the dark at room temperature for 120 minutes. The reporter assay detection reagent was prepared from LiveBLAzer™-FRET B/G Loading Kit (Invitrogen). On an Analyst GT (Molecular Devices Japan, K.K.) the wells were irradiated with excitation light at 405 nm and the fluorescence intensities at 460 nm and 530 nm were measured. The time resolved fluorescence resonance energy transfer (TR-FRET) ratio of each well was calculated according to the following Equation 2. TR-FRET Ratio=(A460X−A460F)/(A530X−A530F) Equation 2
wherein A460X: the fluorescence intensity at 460 nm of the present compound, control or blank;
A460F: the fluorescence intensity at 460 nm of the Cell-free;
A530X: the fluorescence intensity at 530 nm of the present compound, control or blank; and
A530F: the fluorescence intensity at 530 nm of the Cell-free. […]
The IC50 value of the present compound was calculated from the inhibition curve based on the inhibition rate of the present compound at respective concentrations.

T1 sequence (P04629 33-796): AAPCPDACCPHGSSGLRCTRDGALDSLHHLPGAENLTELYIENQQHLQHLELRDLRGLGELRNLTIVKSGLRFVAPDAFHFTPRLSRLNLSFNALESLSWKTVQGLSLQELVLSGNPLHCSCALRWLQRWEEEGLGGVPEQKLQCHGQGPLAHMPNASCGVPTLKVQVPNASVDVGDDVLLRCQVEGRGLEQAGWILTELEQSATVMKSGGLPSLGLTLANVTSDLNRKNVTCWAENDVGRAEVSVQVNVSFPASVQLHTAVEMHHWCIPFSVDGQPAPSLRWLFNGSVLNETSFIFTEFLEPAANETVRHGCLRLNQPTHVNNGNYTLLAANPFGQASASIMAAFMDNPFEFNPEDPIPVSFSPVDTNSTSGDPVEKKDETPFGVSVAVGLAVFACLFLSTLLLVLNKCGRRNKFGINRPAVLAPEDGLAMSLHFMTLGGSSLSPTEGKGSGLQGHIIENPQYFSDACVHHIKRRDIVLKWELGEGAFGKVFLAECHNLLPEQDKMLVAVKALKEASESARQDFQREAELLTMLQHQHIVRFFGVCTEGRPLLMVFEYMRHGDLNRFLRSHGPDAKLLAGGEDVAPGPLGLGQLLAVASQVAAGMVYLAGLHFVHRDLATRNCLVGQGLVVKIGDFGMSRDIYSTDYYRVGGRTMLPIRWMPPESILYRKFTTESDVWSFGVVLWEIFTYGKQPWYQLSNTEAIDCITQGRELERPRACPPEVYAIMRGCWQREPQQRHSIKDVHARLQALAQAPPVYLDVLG

The term IC50 denotes the concentration that gives 50% inhibition. On to `O=C(Nc1cnc(Oc2ccc(-c3cnc(N4CCCCC4=O)s3)cc2)nc1)Nc1cc(C(F)(F)F)cnc1-c1ccc(C(F)(F)F)nc1` [Example 9, 1-[5,6′-bis(trifluoromethyl)-2,3′-bipyridin-3-yl]-3-(2-{4-[2-(2-oxo-1-piperidinyl)-1,3-thiazol-5-yl]phenoxy}-5-pyrimidinyl)urea], for which the values for the IC50 in test [1] and in test [2] were 0.16 µM and 0.093 µM, respectively. As for `O=C(Nc1cnc(Oc2ccc(-c3cnc(N4CCCC4=O)s3)cc2)nc1)Nc1cc(C(F)(F)F)cnc1-c1ccc(C(F)(F)F)nc1` [Example 50, 1-[5,6′-bis(trifluoromethyl)-2,3′-bipyridin-3-yl]-3-(2-{4-[2-(2-oxo-1-pyrrolidinyl)-1,3-thiazol-5-yl]phenoxy}-5-pyrimidinyl)urea], the 50% inhibitory concentration (IC50) in test [1] was determined as 0.04 µM; in test [2], 0.012 µM. For the compound `Cc1ccc(-c2ncc(C(F)(F)F)cc2NC(=O)Nc2cnc(Oc3ccc(-c4cnc(N5CCCCCC5=O)s4)cc3)nc2)cc1C` [Example 59, 1-[2-(3,4-dimethylphenyl)-5-(trifluoromethyl)-3-pyridinyl]-3-(2-{4-[2-(2-oxo-1-azepanyl)-1,3-thiazol-5-yl]phenoxy}-5-pyrimidinyl)urea], the half-inhibitory concentration (IC50) in test [1] turned out to be 0.19 µM; in test [2], 0.07 µM. The matching figures for `Cc1ccc(-n2nc(C(C)(C)C)cc2NC(=O)Nc2cnc(Oc3ccc(-c4cnc(N5CCCC5=O)s4)cc3)nc2)cc1C` [Example 65-1, 1-[1-(3,4-dimethylphenyl)-3-(2-methyl-2-propanyl)-1H-pyrazol-5-yl]-3-(2-{4-[2-(2-oxo-1-pyrrolidinyl)-1,3-thiazol-5-yl]phenoxy}-5-pyrimidinyl)urea]: 0.08 µM and 0.002 µM. The matching figures for `CC(C)(C)c1cc(NC(=O)Nc2cnc(Oc3ccc(-c4cnc(N5CCCC5=O)s4)cc3)nc2)n(-c2ccc3c(c2)CCO3)n1` [Example 66-19, 1-[1-(2,3-dihydro-1-benzofuran-5-yl)-3-(2-methyl-2-propanyl)-1H-pyrazol-5-yl]-3-(2-{4-[2-(2-oxo-1-pyrrolidinyl)-1,3-thiazol-5-yl]phenoxy}-5-pyrimidinyl)urea]: 0.02 µM and 0.004 µM.

For `COC(=O)c1cccc(-n2nc(C(C)(C)C)cc2NC(=O)Nc2cnc(Oc3ccc(-c4cnc(N5CCCC5=O)s4)cc3)nc2)c1` [Example 66-27, Methyl 3-[3-(2-methyl-2-propanyl)-5-{[(2-{4-[2-(2-oxo-1-pyrrolidinyl)-1,3-thiazol-5-yl]phenoxy}-5-pyrimidinyl)carbamoyl]amino}-1H-pyrazol-1-yl]benzoate], the concentration for half-maximal inhibition (IC50) in test [1] was 0.13 µM; in test [2], 0.01 µM.

Consider `CC(=O)Nc1ccc(-n2nc(C(C)(C)C)cc2NC(=O)Nc2cnc(Oc3ccc(-c4cnc(N5CCCC5=O)s4)cc3)nc2)cc1` [Example 66-28, N-{4-[3-(2-methyl-2-propanyl)-5-{[(2-{4-[2-(2-oxo-1-pyrrolidinyl)-1,3-thiazol-5-yl]phenoxy}-5-pyrimidinyl)carbamoyl]amino}-1H-pyrazol-1-yl]phenyl}acetamide], for which the values for the IC50 in test [1] and in test [2] were 0.08 µM and 0.014 µM, respectively. In the same order, the values of `CC(C)(C)c1cc(NC(=O)Nc2cnc(Oc3ccc(-c4cnc(N5CCCC5=O)s4)cc3)nc2)n(-c2ccc(S(N)(=O)=O)cc2)n1` [Example 66-72, 4-[3-(2-methyl-2-propanyl)-5-{[(2-{4-[2-(2-oxo-1-pyrrolidinyl)-1,3-thiazol-5-yl]phenoxy}-5-pyrimidinyl)carbamoyl]amino}-1H-pyrazol-1-yl]benzenesulfonamide] are 0.05 µM and 0.032 µM. For `Cn1ncc2cc(-n3nc(C(C)(C)C)cc3NC(=O)Nc3cnc(Oc4ccc(-c5cnc(N6CCCC6=O)s5)cc4)nc3)ccc21` [Example 71, 1-[1-(1-methyl-1H-indazol-5-yl)-3-(2-methyl-2-propanyl)-1H-pyrazol-5-yl]-3-(2-{4-[2-(2-oxo-1-pyrrolidinyl)-1,3-thiazol-5-yl]phenoxy}-5-pyrimidinyl)urea], the IC50 in test [1] was 0.03 µM; in test [2], 0.002 µM.

With `Cc1ccccc1-n1nc(C(F)(F)F)cc1NC(=O)Nc1cnc(Oc2ccc(-c3cnc(N4CCCC4=O)s3)cc2)nc1` [Example 72-1, 1-[1-(2-methylphenyl)-3-(trifluoromethyl)-1H-pyrazol-5-yl]-3-(2-{4-[2-(2-oxo-1-pyrrolidinyl)-1,3-thiazol-5-yl]phenoxy}-5-pyrimidinyl)urea], the results for the IC50 in test [1] and in test [2] were 0.05 µM and 0.011 µM, respectively. In the same order, the values of `Cc1ccccc1-n1nc(C(C)(F)F)cc1NC(=O)Nc1cnc(Oc2ccc(-c3cnc(N4CCCC4=O)s3)cc2)nc1` [Example 72-3, 1-[3-(1,1-difluoroethyl)-1-(2-methylphenyl)-1H-pyrazol-5-yl]-3-(2-{4-[2-(2-oxo-1-pyrrolidinyl)-1,3-thiazol-5-yl]phenoxy}-5-pyrimidinyl)urea] are 0.06 µM and 0.018 µM. In the case of `CC(C)(C)c1cc(NC(=O)Nc2cnc(Oc3ccc(-c4cnc(N5CCCC5=O)s4)cc3)nc2)n(C2CCOCC2)n1` [Example 80-2, 1-[3-(2-methyl-2-propanyl)-1-(tetrahydro-2 H-pyran-4-yl)-1H-pyrazol-5-yl]-3-(2-{4-[2-(2-oxo-1-pyrrolidinyl)-1,3-thiazol-5-yl]phenoxy}-5-pyrimidinyl)urea], the IC50 in test [1] turned out to be 0.07 µM. Turning to `CC(C)c1ncc(C(F)(F)F)cc1NC(=O)Nc1cnc(Oc2ccc(-c3cnc(N4CCCC4=O)s3)cc2)nc1` [Example 84-41, 1-[2-isopropyl-5-(trifluoromethyl)-3-pyridinyl]-3-(2-{4-[2-(2-oxo-1-pyrrolidinyl)-1,3-thiazol-5-yl]phenoxy}-5-pyrimidinyl)urea], the IC50 in test [1] was 0.09 µM.

The values are drawn from patent US9242977B2, “Trk-inhibiting compound” (ONO PHARMACEUTICAL CO., LTD., priority 2012, dated 2016).
